According to publication PMC7735645 (Journal of the American Chemical Society, 2019):

Key:
A549 cells [1] = assay: NPM1 relocalization; assay type: cell-based; details: for NPM1 redistribution: free ligand alone, Figures S2 and S3
[2] = water/octanol partition coefficient; assay type: physicochemical
A549 cells [3] = assay: 24 h IC50; assay type: cell-based; details: read-out: 24 h IC50 value, Table S1
DNA damage = DNA damage in treated cells; assay type: cell-based; details: early time points, unpublished data from the authors' lab
[4] = A549 cells, 24 h treatment, 10 μM

O=C(O)C(=O)O [oxalic acid ligand, oxalic acid, reference compound]
NPM1 redistribution (A549 cells [1]): no influence on NPM1 redistribution

NC1CCCCC1N (stereo not drawn) [DACH ligand, diaminocyclohexane, reference compound]
NPM1 redistribution (A549 cells [1]): no influence on NPM1 redistribution

NC1CCCCC1N.[Cl][Pt][Cl] (stereo not drawn) [compound 4, DACHPt]
NPM1 redistribution / nucleolar stress induction (A549 cells [1]; [4]): induces robust nucleolar stress | relative hydrophobicity (water/octanol partition coefficient, log P) [2]: more hydrophobic than the simpler diam(m)ine compounds

[NH2][Pt]1([NH2])[O]C(=O)C2(CCC2)C(=O)[O]1 [compound 3, carboplatin, reference compound]
NPM1 redistribution / nucleolar stress induction (A549 cells [1]; [4]): more closely resembles that of the no-treatment control

N.N.O=C([O-])C(=O)[O-].[Pt+2] [compound 5, DOAP]
NPM1 redistribution / nucleolar stress induction (A549 cells [1]; [4]): does not induce stress

O=C1[O][Pt]2([NH][C@@H]3CCCC[C@H]3[NH]2)[O]C1=O [compound 2, oxaliplatin, reference compound]
NPM1 redistribution / nucleolar stress induction (A549 cells [1]; [4]): induces robust redistribution of NPM1 | NPM1 redistribution / nucleolar stress induction (A549 cells [1]; A549 cells, 24 h treatment, 10 μM, listed as Oxaliplatin): robust NPM1 relocalization | IC50 (A549 cells [3]): 81.5 µM | DNA damage relative to NPM1 relocation (DNA damage): no such damage occurs prior to observed NPM1 distribution

N.N.[Cl][Pt][Cl] [compound 1, cisplatin, reference compound]
NPM1 redistribution / nucleolar stress induction (A549 cells [1]; [4]): more closely resembles that of the no-treatment control | NPM1 redistribution / nucleolar stress induction (A549 cells [1]; A549 cells, 24 h treatment, 10 μM, listed as cisplatin): a small amount of NPM1 redistribution was observed | DNA damage relative to NPM1 relocation (DNA damage): DNA damage occurs at early time points

Pentaplatin [compound 9]
NPM1 redistribution / nucleolar stress induction (A549 cells [1]; [4]): found to induce nucleolar stress | coefficient of variation (CV) of NPM1 intensity (A549 cells [1]; [4]): slightly higher resultant CV than positive controls or oxaliplatin
